Laboratory results: US10739353B2, “Suppression of cytokine release and cytokine storm” (SignPath Pharma Inc., priority 2014, dated 2020)
In brackets after ≈: the same amount, converted by molar mass. Entries after “also recorded” stand apart in the source; their conditions may differ. Where two headings read alike, the source gives them in different places.

Columns and labels:
[1] = mice, cited from earlier work; for brain cytokine levels after TBI: cytokines named in value
[2] = rats, cited from earlier work; for brain / tissue cytokine levels after TBI: cytokines named in value
QT interval = settings: cited from earlier work
[3] = cited from earlier work; for clinical outcome in patients with TBI: patient trials
IL-1β and TNF-α = settings: intraperitoneal, 3 hours after injury; cited from earlier work
EBOV(Zaire) = experiment: microbe, parasite or virus in culture; assay type: cell-based; settings: Zaire ebolavirus, HeLa, 48 h, read-out: EC50 (anti-EBOV activity)
Interleukins = settings: cited from earlier work
Other Key Cytokines = settings: cited from earlier work
cytokine release = settings: cited from earlier work
IL-6, TNF-α and MCP-1 = settings: streptozotocin rats; cited from earlier work
coxsackie virus = settings: Song et al; cited from earlier work
[4] = test system: HIV-1, HIV-2, HSV, HPV, HTLV-1, HBV, HCV, and Japanese encephalitis virus; settings: cited from earlier work
SOCS proteins = settings: cited from earlier work
H1N1 virus = settings: in culture; cited from earlier work
[5] = randomized phase II trial, acute stroke, vs control group; cited from earlier work
[6] = Solubility in organic solvents; assay type: physicochemical
Text: Comparison of PLGA C3-complex-curcumin vs PLGA S-curcumin indicated the following differences. The solubilities of 99.2% S-Curcumin in all four solvents. […] This confers improved manufacturing capability, and attributes to different pharmacokinetics and pharmacodynamics in in vivo settings (Table 3). [table]

[7] = rats; cited from earlier work
[8] = test system: rat cerebellar granule cells; settings: toxic doses of glutamate (Bachis et al); cited from earlier work
[9] = phase II trial, 20 patients with severe TBI (Helmy et al)

## TSG-6: TNF-α stimulated gene/protein 6, an anti-inflammatory agent
[1]
  brain damage / neurological outcome after TBI: decreased lesion size and improved neurological recovery

## CC(C)[C@]12O[C@H]1[C@@H]1O[C@]13[C@]1(O[C@H]1C[C@H]1C4=C(CC[C@@]13C)C(=O)OC4)[C@@H]2O [Triptolide]
[2]
  brain damage / neurological outcome after TBI: reduce neuronal apoptosis
  brain / tissue cytokine levels after TBI: suppress IL-1β, IL-6 and TNF-α, to increase IL-10 levels

## CCCCCCCCc1ccc(CCC(N)(CO)CO)cc1 [Fingolimod]
QT interval; patients with relapsing multiple sclerosis, through inhibition of the hERG current
  QT interval: causes QT prolongation

## CC(=O)[C@H]1CC[C@H]2[C@@H]3CCC4=CC(=O)CC[C@]4(C)[C@H]3CC[C@]12C [progesterone]
[2]
  brain damage / neurological outcome after TBI: improved motor skills, decreased cerebral edema and decreased mortality; also recorded: reducing apoptosis of brain tissue; also recorded: better results on the Neurological Severity Score Test
  brain / tissue cytokine levels after TBI: reduced brain levels of IL-6 at 24, 48 and 72 hours; also recorded: decreased levels of IL-1β, IL-6 and TNF-α in the brain; also recorded: reduced brain levels of TNF-α and NF-κB
[3]; SYNAPSE trial, 1195 patients with severe TBI
  favorable outcome on the Glasgow outcome scale: 50.4%
IL-1β and TNF-α
  IL-1β and TNF-α: reduce IL-1β and TNF-α

## COc1cc(C=CC(=O)CC(=O)C=Cc2ccc(O)c(OC)c2)ccc1O [Curcumin, 1,7-bis(4-hydroxy-3-methoxyphenyl)-1,6-heptadiene-3,5-dione]
EBOV(Zaire)
  EC50: 6.5 ± 0.5 µg/mL (≈ 17.6 µM)
Interleukins
  Effect on IL-1: ↓ IL-1
  Effect on IL-2: ↓ IL-2
  Effect on IL-4: ↓ ↑ IL-4
  Effect on IL-5: ↓ IL-5
  Effect on IL-6: ↓ IL-6
  Effect on IL-8: ↓ IL-8
  Effect on IL-10: ↑ IL-10
  Effect on IL-11: ↓ IL-11
  Effect on IL-12: ↓ IL-12
  Effect on IL-13: ↓ IL-13
  Effect on IL-17: ↓ IL-17
Other Key Cytokines
  Effect on GROα (CXCL1): ↓ GROα
  Effect on GROβ (CXCL2): ↓ GROβ
  Effect on IP-10 (CXCL10): ↓ IP-10
  Effect on Interferon γ: ↓ Interferon γ
  Effect on MCP-1 (CCL2): ↓ MCP-1
  Effect on MIP-1α (CCL3): ↓ MIP-1α
  Effect on SDF-1 (CXCL12): ↓ SDF-1
  Effect on TNF-α: ↓ TNF-α
Cytokine release; bone marrow stromal cells, colonic epithelial cells and human articular chondrocytes
  release of IL-1: block the release
Cytokine release
  release of IL-2, IL-12, Interferon-γ: prevents release
Cytokine release; human esophageal epithelial cells and alveolar epithelial cells
  release of IL-8: block the release
Cytokine release; monocytes and macrophages (Abe et al)
  IL-1β, IL-8, TNF-α, MCP-1 and MIP-1α release: suppresses
Cytokine release; monocytes cultured in a high glucose environment (Jain et al)
  release of IL-6, IL-8, TNF-α and MCP-1: markedly reduced
Cytokine release; rheumatoid synovial fibroblasts
  release of IL-6: block the release
IL-6, TNF-α and MCP-1
  levels of IL-6, TNF-α and MCP-1: markedly reduced
Coxsackie virus
  coxsackie virus-induced myocardial damage: protected against coxsackie virus-induced severe myocardial damage
  expression of IL-1β, IL-6 and TNF-α and NF-κB: reduced expression
[4]
  activity against viruses: activity against numerous viruses
SOCS proteins
  effect on SOCS proteins: stimulate
H1N1 virus
  activity against the H1N1 virus: specific activity

## etanercept
[2]
  brain damage / neurological outcome after TBI: reduced neuronal and glial apoptosis and microglial activation; also recorded: increased 5-bromodeoxyuridine and doublecortin markers in the injured brain
  brain / tissue cytokine levels after TBI: reducing the increased levels of TNF-α
[3]; medical records of 617 patients with stroke and 12 with TBI, no control group (Tobinick et al)
  neurological function: Marked improvement in neurological function

## tocilizumab: an IL-6 blocker; anti-IL-6 antibody
QT interval; patients with rheumatoid arthritis
  QT interval: shortening of the duration of the previously prolonged QT interval

## IL-1RA: IL-1 receptor antagonist; human recombinant IL-1RA is a medication for rheumatoid arthritis
[2]
  brain damage / neurological outcome after TBI: No effect was seen at low doses; also recorded: decreased neuronal loss
  brain / tissue cytokine levels after TBI: reduced tissue IL-1β levels
[1]
  brain damage / neurological outcome after TBI: reduced lesion volume
[3]
  clinical outcome in patients with TBI: unable to conclude that IL-1RA administration resulted in therapeutic benefit
[3]; [9]
  crossing of the blood-brain barrier: does cross the blood-brain barrier
  safety: safe
[5]
  loss of cognitive function: less loss of cognitive function

## Cc1cc(-c2ccccc2)nnc1N1CCN(c2ncccn2)CC1 [MW151]
[1]
  brain damage / neurological outcome after TBI: improvement in neurologic functioning
  brain cytokine levels after TBI: restored abnormal cytokine levels to normal

## COc1cc(/C=C/C(=O)CC(=O)/C=C/c2ccc(O)c(OC)c2)ccc1O [Batch-C100609, diferuloylmethane]
[6]; Acetone
  1 g of solvent solubilize in solvent: 23.6 mL
  Conc.: 42300 µg/mL
  Physical appearance of solubility: Fully
[6]; Acetonitrile
  1 g of solvent solubilize in solvent: 184 mL
  Conc.: 5440 µg/mL
  Physical appearance of solubility: Partial
[6]; Ethanol
  1 g of solvent solubilize in solvent: 263 mL
  Conc.: 3804 µg/mL
  Physical appearance of solubility: Partial
[6]; Ethyl acetate
  1 g of solvent solubilize in solvent: 96.2 mL
  Conc.: 10400 µg/mL
  Physical appearance of solubility: Partial
[6]; normalized to equal concentrations, Ethanol, Ethyl acetate, Acetone, Acetonitrile
  solubility compared with C3 complex: greater solubility

## CC(C(=O)O)c1ccc2c(c1)[nH]c1ccc(Cl)cc12 (centres unmarked) [Carprofen]
[1]
  brain damage / neurological outcome after TBI: improve neurological functioning
  brain cytokine levels after TBI: markedly reduce IL-1β and IL-6

## CC(C)c1nc(N(C)S(C)(=O)=O)nc(-c2ccc(F)cc2)c1/C=C/[C@@H](O)C[C@@H](O)CC(=O)O [rosuvastatin]
[3]; 10 days of rosuvastatin, 19 patients vs 17 controls
  plasma cytokine levels in patients with TBI: dramatic decrease in plasma levels of TNF-α; also recorded: No effect was seen on IL-1β, IL-6 or IL-10
[3]
  clinical outcome in patients with TBI: reduction in amnesia time; also recorded: no difference in disability at 3 months; also recorded: improvement in disability scores

B1: IL-10: the most important anti-inflammatory cytokine (protein, UniProt P22301 19-178, looked up)
Interleukin-10: SPGQGTQSENSCTHFPGNLPNMLRDLRDAFSRVKTFFQMKDQLDNLLLKESLLEDFKGYLGCQALSEMIQFYLEEVMPQAENQDPDIKAHVNSLGENLKTLRLRLRRCHRFLPCENKSKAVEQVKNAFNKLQEKGIYKAMSEFDIFINYIEAYMTMKIRN
[2]
  brain damage / neurological outcome after TBI: enhance neurological recovery; also recorded: Intracerebroventricular administration was not effective
  brain / tissue cytokine levels after TBI: reduce synthesis of IL-1
[7]
  cytokines and recovery after spinal cord injury: reduced TNF-α production and improved motor function
[8]
  caspase-3 and neuronal death: blocks caspase-3 and reduces neuronal death
